We go through one compound from ChEMBL document CHEMBL4028804, “The Necessary Nitrogen Atom: A Versatile High-Impact Design Element for Multiparameter Optimization” (J Med Chem, 2017).

Where only a bound is given, the exact number is not on record here.

Assay [1] has as its target T1, Mu-type opioid receptor (Homo sapiens, UniProt P35372). The experiment in a line: Agonist activity at human mu-opioid receptor expressed in HEK293 cell membranes after 1 hr by [35S]-GTPgammaS binding assay. Type of assay: functional.
Assay [2] concerns the target T1, Mu-type opioid receptor. The experiment in a line: Displacement of [3H]-DAMGO from human HA-tagged mu-opioid receptor expressed in HEK293 cells after 90 mins by liquid scintillation counting analysis. It counts as cell-based. Background: Loss of bound radioactivity is the signal in a displacement assay; it reports binding, not function.
In assay [3] the target is T1, Mu-type opioid receptor. The experiment in a line: Agonist activity at human mu-opioid receptor expressed in HEK293 cells coexpressing delta6-Galphaqi4-myr assessed as induction of intracellular calcium flux after 48 hrs by FLIPR assay. It counts as functional, cell-based.

T1 sequence (P35372 whole entry): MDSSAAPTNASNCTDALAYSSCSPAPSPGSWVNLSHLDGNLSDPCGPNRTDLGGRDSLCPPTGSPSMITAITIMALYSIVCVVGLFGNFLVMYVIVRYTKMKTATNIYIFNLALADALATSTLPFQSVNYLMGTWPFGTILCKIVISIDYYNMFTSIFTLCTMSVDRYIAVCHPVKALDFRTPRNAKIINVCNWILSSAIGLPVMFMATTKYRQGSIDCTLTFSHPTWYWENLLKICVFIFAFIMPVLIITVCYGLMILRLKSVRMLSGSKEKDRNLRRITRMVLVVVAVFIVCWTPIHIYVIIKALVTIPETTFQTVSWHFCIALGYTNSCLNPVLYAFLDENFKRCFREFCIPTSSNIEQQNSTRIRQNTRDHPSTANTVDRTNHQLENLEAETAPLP

Consider `O=C(N[C@@H]1CC[C@@]2(O)[C@H]3Cc4ccc(O)c5c4[C@@]2(CCN3CC2CC2)[C@H]1O5)c1ccc2ccccc2c1`, for which the concentration giving a half-maximal response (EC50) in assay [1] was 0.3 nM; in assay [3], greater than 1000 nM. Besides, the Ki in assay [2] is 0.0013 nM.

As a reminder, the EC50 is the midpoint of the concentration-response curve. As a reminder, the Ki is a measure of affinity in units of concentration, obtained from inhibition or displacement. Lower therefore signals tighter binding.
